Row | melting point [°C] | Structure (SMILES)
1 | 145 to 147 | C#CCn1c(=O)n(-c2ccccc2)c2ccccc21
2 | 118 | CC(C)c1c(Oc2ccccc2)n(COCc2ccccc2)c(=O)[nH]c1=O
3 | 49 to 53 | CC(C)=NNC(=O)NCCCN(C)C
4 | 220 to 225 | Cc1c(C(=O)O)c(=O)cc(-c2ccccc2)n1C
5 | 109 | CCc1cc(-c2cccc(N)n2)c(OC)cc1OCCN(C)C
6 | 35 to 39 | CC(C)c1ccnc(C(C)C)c1N
7 | 95 | COc1cc(C(=CN(C)C)C(C)=O)ccc1OCC(O)CN1CCN(c2ccccc2C)CC1 (stereo unspecified)
8 | 181 to 184 | FC(F)(F)c1cccc(-c2cnnn2-c2cc(Cl)ccc2OCc2nnn[nH]2)c1
9 | 104 to 105 | CCCCOc1ccc(Cl)cc1C(=O)NCCc1ccc(CC(=O)O)cc1
10 | 265 to 267 | CS(=O)(=O)c1cccc(CNC(=O)c2nc3scc(COCc4ccc(C(=O)O)cc4)c3c(=O)[nH]2)c1
11 | 209 to 210 | Cc1ccccc1NS(=O)(=O)c1ccc(N2CCNC2=O)cc1
12 | 139 to 141 | COc1ccc(N2CCN(c3c(C)c(C)c4c(c3C)C(c3ccc(F)cc3)C(C)(C)O4)CC2)cc1 (stereo unspecified)
13 | 229 to 231 | COc1cccc(C=C2NC(=O)NC2=O)c1
14 | 169 to 172 | Cc1ccc(NC(=O)c2ccc(CN(C)C)c(C(F)(F)F)c2)cc1-c1ccc2ccncc2c1
15 | 112 to 114 | CC(C)C(N)=C(C#N)C(N)=S
16 | 130 | CCCCCCN1CC[C@H](NC(=O)c2cc(Cl)c(N)c3c2OCC3)[C@H](O)C1 (relative stereo)
17 | > 250 | Cc1c(C(N)=O)oc2c(C(=O)O)cccc2c1=O
18 | 267 to 268 | CNC(=O)Cc1nn(-c2ccccc2)c(=O)c2c1c1c(Br)cccc1n2C
19 | 68 to 74 | CC(C)(C)OC(=O)Nc1ccc(OC(=O)C2CCCCC2)c(C(=O)O)c1
20 | 82.8 to 98.7 | CS(=O)(=O)c1ccc(C(Cc2cccc(F)c2)C(=O)Nc2cnc(CO)cn2)cc1 (stereo unspecified)
21 | 101 to 104 | CC(C)(C)OC(=O)N1CCCC(CO)(c2ccccc2)C1 (stereo unspecified)
22 | 201 | Cn1c2ccccc2c2nc3cccc(CO)c3nc21
23 | 205 to 210 | Cc1c(C(=O)Nc2ccc(N3CCC(N4CCOCC4)CC3)c(Br)c2)cnn1-c1ccc(Cl)cc1

Row | melting point [°C] | Structure (SMILES)
24 | 234 to 236 | CC(=O)N1CCNC1=NC(c1ccccc1)c1ccccc1
25 | 57 to 59 | CCN(CCF)CCN1C(=O)c2ccccc2C1=O
26 | 130 to 132 | COc1cc(C(=O)C#CC(=O)O)cc(OC)c1OC
27 | 106 to 108 | CCCCCCCCCCCCCCCCCCOc1cc(N)cc([N+](=O)[O-])c1
28 | 126 to 128 | CCNC(=O)Oc1ccc2cc(N3CC(COC)OC3=O)ccc2c1 (stereo unspecified)
29 | 173 to 174 | Cc1ccccc1[C@@H]1CN(C(=O)C2CCN(C(=O)CO)CC2)CC[C@H]1C(=O)N(C)Cc1cc(C(F)(F)F)cc(C(F)(F)F)c1 (relative stereo)
30 | 128 to 130 | CC(=O)Oc1c(C)cc2c(c1C)C(C)CN2C(C)=O (stereo unspecified)
31 | 99 to 102 | CCOC(=O)c1cc(=O)c2c(OCC(O)COc3ccc(C(C)(C)C)cc3)cccc2o1 (stereo unspecified)
32 | > 300 | Cc1c(C(=O)O)sc2ccc(Br)cc12
33 | 160 to 163 | Cc1c(O)cc(O)cc1C(=O)OCc1ccc([N+](=O)[O-])cc1
34 | 250 to 252 | Oc1ccc2nc(-c3ccc(C45CC6CC(CC(C6)C4)C5)c(O)c3)[nH]c2c1
35 | 155 to 157 | COc1ccc2c(c1)C(=O)c1cc(CC(=O)O)ccc1SC2
36 | 164 to 165 | Fc1ccc(C(F)(F)F)cc1Nc1nc2ccccc2o1
37 | 68 to 69 | CC=CC(=O)C1=C(C)C(=O)CCC1(C)C
38 | 81 to 86 | CC(=O)Nc1ccn(C2OC(CO[Si](c3ccccc3)(c3ccccc3)C(C)(C)C)CC2F)c(=O)n1 (stereo unspecified)
39 | 174 to 178 | CSC1C(=O)Nc2ccc(Oc3ccc(C(F)(F)F)c(Cl)c3)cc21 (stereo unspecified)
40 | 106 to 110 | Cn1c(SCC(=O)NCCC[N+](C)([O-])Cc2ccc(Cl)c(Cl)c2)nc2ccccc21 (stereo unspecified)
41 | > 260 | O=C(O)c1cnc2cc(O)ccc2c1
42 | 201 to 202 | COc1ccc2nc(Cl)c(C#N)cc2c1
43 | 103 to 105 | COC(=O)c1ccccc1NCCCc1ccccc1
44 | 157 to 160 | CC(=O)SCC(C(=O)NCCc1nnn[nH]1)C(F)(F)F (stereo unspecified)
45 | 94 to 95 | CN1C(=O)CC[C@]2(C)c3ccc(Sc4cnccn4)cc3CC[C@@H]12
46 | 62 to 63 | CCN1CCCC1CNC(=O)c1c(O)ccc(Br)c1OC (stereo unspecified)

Row | melting point [°C] | Structure (SMILES)
47 | 149 to 151 | O=C(CO)NC1CCC(CC2CCC(NC(=O)CO)CC2)CC1 (stereo unspecified)
48 | 43 to 45 | COc1cc(C(O)CCCCCCCCCCOCc2ccccc2)ccc1OCc1ccccc1 (stereo unspecified)
49 | 137 to 138 | CCN(C(=O)C(C)O)c1cn(-c2cccnc2)nc1Cl (stereo unspecified)
50 | 93 to 93.5 | O=C(CCCCC(=O)Oc1ccc(C(=O)OCc2ccccc2)cc1)Oc1ccc(C(=O)OCc2ccccc2)cc1
51 | 74 | O=C1Cc2ccccc2N1CCCl
52 | 144 to 146 | CCOC(=O)Cc1nc(-c2ccc(Cl)cc2)oc1OCC
53 | 87 to 89 | Cc1cc(OCC(O)CCCl)ccc1Cl (stereo unspecified)
54 | 92 to 93 | OCc1csc(-c2ccccc2)c1
55 | 94 to 95 | CC(=O)N1CCc2ccc(SCc3ccccc3)c([N+](=O)[O-])c2C1
56 | 172 to 173 | O=C(O)COc1cc(Cl)ccc1C(=O)NCc1ccc(Br)cc1
57 | 63 | CCOC(=O)C(C)Oc1ccc(OCc2ccccc2)cc1F (stereo unspecified)
58 | 194 to 195 | CCCOc1ccc(CN/C=C2\C(=O)NC(=O)c3ccc(-c4ccc(F)cc4)cc32)cc1O
59 | 218 to 219 | COc1ncccc1-c1cccn2nc(Cl)nc12
60 | 205 to 208 | CC(C)(C)OC(=O)NC(C)(C)c1ccc(C(=O)O)cc1
61 | 165 to 167 | COc1ccc(C2=NN(c3ccc(CC(=O)N4CCOCC4)cc3)C(=O)C(C)(C)C2)cc1OC
62 | 144 to 146 | O=C(NC(=S)Nc1cccc(Oc2ccccc2)c1)c1cccnc1
63 | 188 to 190 | CCNc1nc2c(N)nc3ccccc3c2n1CC(C)C
64 | 129 to 131 | CN(C)C(=O)c1ccc([N+](=O)[O-])cc1S(=O)(=O)Cl
65 | 299 to 301 | O=c1cc(CBr)c2c(Cl)cc(Cl)cc2[nH]1
66 | 133 | CCc1nn(CCO)c(CC)c1Oc1cc(C#N)cc(S(C)(=O)=O)c1
67 | 172 to 173 | COc1ccc(NC(=O)CBr)c(C(=O)O)c1
68 | 166 to 168 | Cc1ccc(NC(=O)c2cc(Cl)ccc2NCC2CCN(C3CCOCC3)CC2)nc1
69 | 85 to 87 | CC1Sc2nc(SCc3ccccc3)nn2C1=O (stereo unspecified)

Row | melting point [°C] | Structure (SMILES)
70 | 120 to 128 | COc1cc2c(cc1Nc1ncc(Cl)c(NC3(C(=O)NCC#N)CC3)n1)CCN(CC(=O)N(C)C)CC2
71 | > 45 | CC(C)(C)OC(=O)c1ccccc1-c1ccc(CNC(=S)NN)cc1
72 | 194 to 195 | O=C(N[C@H](Cc1ccc(C(F)(F)F)cc1)[C@@H](O)c1cccc2ccccc12)c1ccc(F)cc1 (racemic)
73 | 212 to 214 | N#CCc1cc(-c2ccc(Cl)cc2)n(-c2ccc(S(N)(=O)=O)cc2)n1
74 | 139 to 142 | CC(C)(C)OC(=O)Nc1cc(COC2CCCCO2)c(-c2ccc(F)cc2)cc1N (stereo unspecified)
75 | 173 to 175 | COc1cc2c(cc1OC)C(C(S)(C#N)CC(=O)O)=NCC2 (stereo unspecified)
76 | 172 to 176 | O=c1[nH]c(F)c(Cl)c(Cl)c1Cl
77 | 136 to 138 | O=C(c1ccc(O)cc1)c1ccc(OCCBr)cc1
78 | 175 to 178 | Cc1ccc(S(=O)(=O)NC2(C)c3ccccc3C=Cc3ccccc32)cc1
79 | 287 to 288 | COc1ccc2c(c1)c1c3c(c(-c4ccccc4Cl)cc1n2CCC#N)C(=O)NC3=O
80 | 42 | O=C(Cl)c1cnc(Cl)nc1-c1ccccc1
81 | 100 to 103 | O=C(CN1CCOCC1)N[C@@H](Cc1cccc2ccccc12)C(=O)O
82 | 132 to 134 | NC(=O)c1cc(Cl)c(Cl)cc1C(=O)NCCN1CCC(c2noc3cc(F)ccc23)CC1
83 | 198 to 200 | Nc1nnc(C(=O)OCc2ccccc2)s1
84 | 72 to 73.5 | Cc1cc(Oc2nn(C)c(C(F)(F)F)c2Cl)ccc1[N+](=O)[O-]
85 | 177 to 179 | CN(C)c1cc(C(=O)CS(C)(=O)=O)cc(N(C)C)c1C(C)(C)C
86 | 326 to 328 | COc1ccc2nc(-c3ccc(OC)c(F)c3)cc(O)c2c1
87 | 164 to 167 | ON=c1ccccc2cnccc12
88 | 156 to 157 | CCCc1nc2cnc3ccccc3c2n1CCCCNS(=O)(=O)c1ccccc1
89 | 165 | Cc1ccc2ncccc2c1C(=O)NCC1CCCCC1
90 | 236 | O=C(c1cc(Cl)cc(Cl)c1)N1CCc2cc(S(=O)(=O)N3CC(c4ccccc4)NC3=O)ccc21 (stereo unspecified)
91 | 192 to 193 | CC(C)n1c(N2CCN(C)CC2)nc2cc(Cl)c(N)cc21
92 | 140 to 141 | CC[C@H](C)[C@H](OCc1cc(F)cc(F)c1)[C@H]1[C@H]([N+](=O)[O-])[C@H](c2ccccc2)N[C@@H]1C(=O)NCC(=O)O

Row | Structure (SMILES) | melting point [°C]
93 | CCCc1c(C(=O)C2CC2)c2ccc(C(N)=O)cc2n1Cc1cc2c(cc1Cl)OCO2 | 162 to 164
94 | CC(=O)OC1CC2CCC3C(CCC4(C)C(O)C(N5CCCCC5)CC34)C2(C)CC1N1CCOCC1 (stereo unspecified) | 148 to 152
95 | CN1CC[C@]2(c3cccc(O)c3)CC=CC[C@@H]2C1 (relative stereo) | 159
96 | CN(C)c1ccnc(N(C)C2CCN(CCCC(c3ccc(F)cc3)c3ccc(F)cc3)CC2)n1 | 106
97 | CC1(C)CCC(C)(C)c2cc(-c3cc([N+](=O)[O-])ccc3OS(=O)(=O)C(F)(F)F)ccc21 | 87 to 89
98 | COc1cccc([C@]23CCN(C)C(=O)[C@@H]2CCC2(C3)OCCO2)c1 (relative stereo) | 180 to 181
99 | COC(=O)[C@@H]1[C@@H](Cc2ccccc2)C[C@@H]2CC[C@H]1N2C | 79 to 80
100 | CC(C)CCN1C(=O)C(NC(=O)Oc2ccccc2)C(=O)N(c2ccccc2)c2ccccc21 (stereo unspecified) | 70
101 | CCOC(=O)C(=O)C1C(=O)c2cccc3c2C1CCC3 (stereo unspecified) | 92 to 94
